The subject of one assay is C57BL/6 mice. The assay can be described thus: Haloperidol induced catalepsy model (bar grip test, step down latency). It is filed as in vivo, mouse. The following applies: haloperidol 3 mg/Kg PO, male C57BL/6 mice, compound PO. The text has this:
Haloperidol Induced Catalepsy Model
To evaluate the potential beneficial effects to motor defects present in schizophrenics treated with typical and atypical antipsychotic agents and in Parkinson's disease patients, the compounds of the invention may be tested in a reversal of catalepsy model in which motor freezing, or catalepsy, is induced by potent dopamine D2 receptor antagonists such as haloperidol or risperidone. The method uses the “bar grip test”, in which the front paws of the mouse are placed so as to grip a 3 mm-diameter, suspended wooden bar. A “step down latency” is measured by recording the time until the mouse removes its paws from the wooden bar to the floor surface. Catalepsy is a freezing of the musculature that prevents the mouse from moving off the bar. […]
A catalepsy score is recorded for each mouse at 2, 3, 4, and 6 hours after administration of drugs. […] The latency until the mouse steps both paws down from the bar to the floor surface (i.e., step down latency) is recorded up to 120 sec. […] If none of the 10 attempts are beyond 10 sec, the longest duration recorded is used as the catalepsy score. Otherwise, the initial cataleptic duration (>10 sec) is recorded during the 120 sec testing time. Mean step down latency is calculated for each treatment group.

The subject of the next assay is rats. Briefly: Novel Object Recognition (NOR) assay. Conditions: PO, administered to a rat 2 hours before T1 (acquisition); 24 h interval. It is filed as in vivo. The text has this:
Novel Object Recognition Assay
To measure the cognition-enhancing effects of the compounds of the invention, the candidate compounds may be evaluated in a Novel Object Recognition (NOR) assay. This assay protocol is described in detail in Ennaceur et al., Behav. Brain Res. (1988) 31:47-59 and Prickaerts et al., Eur. J. Pharmacol. (1997) 337:125-136, the contents of each of which are incorporated by reference in their entirety. In this protocol, the rats are introduced to a chamber at time T1 and allowed to interrogate two identical “familiar objects” for six minutes. Twenty-four hours later, they are re-introduced to this chamber, where one of the familiar objects has been replaced with a novel object. The “discrimination index”, a measure of the time spent in close proximity to the novel over the familiar object, may then be measured. Since rodents will forget the original experiment at T1 within 4 hours, this test with a 24 h interval is a measure of strong cognitive enhancement.
This assay protocol can be modified in order to evaluate different phases of memory. There are three general phases of memory, namely, acquisition, consolidation and retrieval. In this modified protocol, the rats may be dosed with the candidate compound two hours before T1 and tested 24 h later without additional dosing. This is a test of the acquisition process. […]

Take `CC(=O)c1ccc(Cn2nc3c(c2Nc2ccc(F)cc2)C(=O)N(C)C2=NC(C)(C)CN23)cc1` [Example 1, 7,8-Dihydro-2-(4-acetylbenzyl)-3-(4-fluorophenylamino)-5,7,7-trimethyl-[2H]-imidazo-[1,2-a]pyrazolo[4,3-e]pyrimidin-4(5H)-one]: the minimal effective dose in the assay on C57BL/6 mice and in the assay with rats was 0.1 mg/kg throughout.

(Values after patent US9598426B2, “Organic compounds” (INTRA-CELLULAR THERAPIES, INC., priority 2013, dated 2017).)
